# In ChEMBL document CHEMBL1201862, “PubChem BioAssay data set” (2004):
# Calls of active or inactive are those of the source. Rule as the data show it, for most assays here: actives have a measured EC50 and inactives only a lower limit.
# Key:
# Cytochrome P450 2D6 = Cytochrome P450 2D6 (Homo sapiens, UniProt P10635);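 also: CYP2D6 member of a cytochrome P450 panel assay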
# Large T antigen = Large T antigen (Simian virus 40, UniProt P03070); assay type: functional, Betapolyomavirus macacae;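 also: Confirmatory-stage PubChem screen for compounds that inhibit SV40 T antigen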
# Sequence of Large T antigen (P03070 whole entry): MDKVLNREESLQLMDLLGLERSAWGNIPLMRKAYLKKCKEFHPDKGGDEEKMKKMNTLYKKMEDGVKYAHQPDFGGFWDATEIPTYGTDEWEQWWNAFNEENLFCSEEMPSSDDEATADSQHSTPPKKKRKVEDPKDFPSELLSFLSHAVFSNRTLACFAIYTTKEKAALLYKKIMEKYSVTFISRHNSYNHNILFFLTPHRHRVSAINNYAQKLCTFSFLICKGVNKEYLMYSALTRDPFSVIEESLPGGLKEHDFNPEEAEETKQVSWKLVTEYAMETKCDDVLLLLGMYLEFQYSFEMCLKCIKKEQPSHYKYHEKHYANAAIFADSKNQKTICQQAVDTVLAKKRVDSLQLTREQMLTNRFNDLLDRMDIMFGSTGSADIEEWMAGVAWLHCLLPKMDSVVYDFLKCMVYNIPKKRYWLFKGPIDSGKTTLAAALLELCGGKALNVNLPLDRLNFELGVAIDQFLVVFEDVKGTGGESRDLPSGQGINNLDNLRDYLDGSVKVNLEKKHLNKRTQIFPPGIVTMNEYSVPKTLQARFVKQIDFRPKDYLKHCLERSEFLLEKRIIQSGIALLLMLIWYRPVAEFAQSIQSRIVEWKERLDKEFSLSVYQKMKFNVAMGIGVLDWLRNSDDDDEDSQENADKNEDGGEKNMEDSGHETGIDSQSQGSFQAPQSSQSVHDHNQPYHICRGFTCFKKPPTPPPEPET
# [1] = target: T1, Corticotropin-releasing factor receptor 2/Corticotropin-releasing factor-binding protein (Homo sapiens, UniProt P24387+Q13324); test: activators of CRF receptor 2 with binding protein – uHTS hits, confirmation (AID 602473); assay type: functional; settings: read-out: EC50_Mean
# T1 sequence (Q13324 whole entry): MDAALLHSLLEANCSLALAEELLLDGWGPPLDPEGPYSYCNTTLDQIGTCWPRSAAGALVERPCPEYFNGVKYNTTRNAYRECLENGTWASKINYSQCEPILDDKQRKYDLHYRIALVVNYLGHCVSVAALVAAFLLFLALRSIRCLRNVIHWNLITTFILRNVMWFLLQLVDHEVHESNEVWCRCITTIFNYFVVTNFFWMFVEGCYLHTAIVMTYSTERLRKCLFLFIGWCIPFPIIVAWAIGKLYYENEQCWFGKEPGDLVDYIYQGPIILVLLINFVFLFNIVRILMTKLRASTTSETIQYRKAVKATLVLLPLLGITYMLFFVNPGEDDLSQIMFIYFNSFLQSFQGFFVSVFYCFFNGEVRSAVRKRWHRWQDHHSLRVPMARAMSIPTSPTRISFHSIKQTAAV
# T1 sequence (P24387 whole entry): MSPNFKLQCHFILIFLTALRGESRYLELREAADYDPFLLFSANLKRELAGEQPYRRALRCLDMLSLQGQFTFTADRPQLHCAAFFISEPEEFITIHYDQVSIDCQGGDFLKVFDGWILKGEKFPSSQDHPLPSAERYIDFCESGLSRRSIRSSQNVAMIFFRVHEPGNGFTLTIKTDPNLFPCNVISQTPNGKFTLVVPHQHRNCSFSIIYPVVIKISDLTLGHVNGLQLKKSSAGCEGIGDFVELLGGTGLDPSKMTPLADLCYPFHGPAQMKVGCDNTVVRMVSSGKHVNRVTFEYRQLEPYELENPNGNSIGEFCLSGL
# [2] = Trypanosoma cruzi growth suppression in host cells – NIH3T3 host cells, beta-gal luminescence, confirmation (AID 2044); assay type: functional, cell-based;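 also: intracellular parasites grown in NIH/3T3 mouse fibroblasts as host cells; luminescent beta-galactosidase reporter signal from transgenic T. cruzi replicating inside host cells; inhibitors lower the luminescence signal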
# [3] = NIH3T3 cell viability loss – ATP luminescence, mouse fibroblasts, counter-screen, dose response (AID 2010); assay type: functional, cell-based;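 also: cells exposed to compound for about 90 hours before reading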
# [4] = target: T2, Replicative DNA helicase DnaB (Mycobacterium tuberculosis, UniProt P9WMR3); test: DnaB intein splicing inhibitors, dose response, biochemical, cell-free fluorescence (AID 449749); assay type: functional
# T2 sequence (P9WMR3 whole entry): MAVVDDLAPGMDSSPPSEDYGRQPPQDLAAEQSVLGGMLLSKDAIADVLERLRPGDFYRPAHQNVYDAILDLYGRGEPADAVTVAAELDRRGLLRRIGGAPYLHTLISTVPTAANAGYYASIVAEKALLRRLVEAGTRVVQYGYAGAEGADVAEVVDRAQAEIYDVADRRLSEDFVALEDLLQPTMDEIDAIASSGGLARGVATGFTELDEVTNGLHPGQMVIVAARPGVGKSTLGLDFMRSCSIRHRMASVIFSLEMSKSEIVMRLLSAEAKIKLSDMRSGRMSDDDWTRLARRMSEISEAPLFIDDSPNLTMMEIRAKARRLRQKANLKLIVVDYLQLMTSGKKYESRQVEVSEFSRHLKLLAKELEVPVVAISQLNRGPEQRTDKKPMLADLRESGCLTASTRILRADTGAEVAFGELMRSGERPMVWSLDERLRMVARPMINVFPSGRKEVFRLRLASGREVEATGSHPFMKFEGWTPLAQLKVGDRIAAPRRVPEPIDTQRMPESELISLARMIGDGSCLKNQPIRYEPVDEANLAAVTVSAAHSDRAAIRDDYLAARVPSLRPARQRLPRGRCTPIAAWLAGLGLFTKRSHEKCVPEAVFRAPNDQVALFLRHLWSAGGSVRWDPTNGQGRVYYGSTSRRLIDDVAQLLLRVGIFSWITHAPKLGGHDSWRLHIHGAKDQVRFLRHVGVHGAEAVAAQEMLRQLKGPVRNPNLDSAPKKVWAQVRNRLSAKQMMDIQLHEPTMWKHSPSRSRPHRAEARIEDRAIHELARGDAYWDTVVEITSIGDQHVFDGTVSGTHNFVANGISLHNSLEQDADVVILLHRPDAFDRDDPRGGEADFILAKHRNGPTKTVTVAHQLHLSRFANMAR
# Protein RecA = target: T3, Protein RecA (Mycobacterium tuberculosis, UniProt P9WHJ3); test: Fluorescence Cell-Free Homogeneous Dose Retest to Identify Inhibitors of RecA-Intein Splicing Activity. [Related pubchem assays (depositor defined):AID2097, AID2223, AID489010, AID492950]; assay type: functional
# T3 sequence (P9WHJ3 whole entry): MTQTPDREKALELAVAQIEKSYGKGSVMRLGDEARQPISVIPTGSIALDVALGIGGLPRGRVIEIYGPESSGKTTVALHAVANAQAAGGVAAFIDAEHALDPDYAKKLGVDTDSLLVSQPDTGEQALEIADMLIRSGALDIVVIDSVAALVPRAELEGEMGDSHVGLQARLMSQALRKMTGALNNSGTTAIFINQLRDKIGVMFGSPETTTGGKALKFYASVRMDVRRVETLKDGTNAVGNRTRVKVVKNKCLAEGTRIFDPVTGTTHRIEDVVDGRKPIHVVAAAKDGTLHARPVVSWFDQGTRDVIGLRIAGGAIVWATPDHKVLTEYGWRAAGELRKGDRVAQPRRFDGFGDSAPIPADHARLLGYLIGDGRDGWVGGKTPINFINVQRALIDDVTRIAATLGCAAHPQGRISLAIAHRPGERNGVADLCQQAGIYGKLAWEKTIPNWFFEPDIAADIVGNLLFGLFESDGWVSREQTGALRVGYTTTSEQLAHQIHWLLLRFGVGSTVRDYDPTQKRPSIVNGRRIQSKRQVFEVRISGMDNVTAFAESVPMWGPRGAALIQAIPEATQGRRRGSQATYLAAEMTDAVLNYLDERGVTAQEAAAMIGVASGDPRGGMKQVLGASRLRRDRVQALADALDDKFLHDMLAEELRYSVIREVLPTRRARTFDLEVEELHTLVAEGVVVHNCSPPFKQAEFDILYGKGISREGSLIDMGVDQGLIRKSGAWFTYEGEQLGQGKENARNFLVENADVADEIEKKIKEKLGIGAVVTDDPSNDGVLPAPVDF
# Sequence of Cytochrome P450 2D6 (P10635 whole entry): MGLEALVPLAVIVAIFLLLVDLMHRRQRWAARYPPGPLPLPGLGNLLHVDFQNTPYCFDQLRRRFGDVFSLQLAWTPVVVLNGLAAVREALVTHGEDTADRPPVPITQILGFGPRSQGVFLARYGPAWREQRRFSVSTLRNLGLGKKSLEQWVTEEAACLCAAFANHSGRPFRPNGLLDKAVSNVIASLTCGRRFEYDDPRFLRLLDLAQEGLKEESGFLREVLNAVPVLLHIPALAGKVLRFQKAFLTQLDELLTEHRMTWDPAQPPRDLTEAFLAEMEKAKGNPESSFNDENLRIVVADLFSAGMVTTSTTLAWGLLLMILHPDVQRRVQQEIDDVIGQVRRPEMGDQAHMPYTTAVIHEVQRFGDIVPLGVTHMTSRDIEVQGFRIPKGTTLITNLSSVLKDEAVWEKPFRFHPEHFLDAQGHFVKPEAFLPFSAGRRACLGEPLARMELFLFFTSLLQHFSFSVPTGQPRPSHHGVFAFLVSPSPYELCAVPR
smiles,measurement,setting,value
CCOC(=O)c1c(NC(=O)CSc2nnnn2C)sc(C)c1C,AC50,Cytochrome P450 2D6,25.1 µM (inconclusive)
COc1cc(/C=N/NC(=O)CC#N)cc(Br)c1O,IC50,Large T antigen,9.57 µM (active)
COC(=O)c1c(NC(=O)CN2CCC3(O)CCCCC3C2c2ccccc2OC)sc(C)c1C (stereo not drawn),EC50,[1],> 53 µM (inactive)
N#C/C(=C(/O)c1ccc([N+](=O)[O-])s1)c1nc2ccccc2[nH]1,EC50,[2],0.233 µM (active)
same,EC50,[3],4.89 µM (active)
Cc1ccc(-n2nnnc2CCl)cc1,AC50,[4],54.2 µM (active)
same,EC50,Protein RecA,7.8 µM (active)
CCOC(=O)/C(=N\Nc1ccccc1Cl)N1CCN(c2ccccc2OC)CC1,EC50,[2],1.18 µM (active)
same,EC50,[3],33.7 µM (active)
C=C(C)COc1ccc(-c2ncncc2-c2ccccc2OC)c(O)c1,EC50,[2],0.544 µM (active)
same,EC50,[3],> 60 µM (not active)
COc1ccc2[nH]c(C)c(CCN(Cc3cccs3)C(S)=Nc3cccc(F)c3)c2c1,EC50,[2],3.35 µM (active)
same,EC50,[3],> 60 µM (not active)
Cc1ccc(-c2nn(-c3cc(N4CCNCC4)ccc3[N+](=O)[O-])c(=O)c3ccccc23)cc1,EC50,[2],2.04 µM (active)
same,EC50,[3],> 60 µM (inconclusive)
C=CCn1c(SCC(C)=O)nc2scc(-c3ccco3)c2c1=O,IC50,Large T antigen,60.2 µM (active)
COc1ccc([C@@H](C)c2cc3c(cc2O)OCO3)cc1,AC50,Cytochrome P450 2D6,3.98 µM (inconclusive)
CC(=O)Nc1ccc(NC(=O)CSc2ncc(C(=O)Nc3ccc(F)cc3)c(=O)n2C)cc1,AC50,[4],> 380 µM (inactive)
same,EC50,Protein RecA,> 380 µM (inconclusive)
Cc1ccccc1-n1nc2c(c1NC(=O)c1ccc(S(=O)(=O)N(C)C)cc1)CSC2,AC50,Cytochrome P450 2D6,28.2 µM (inconclusive)
O=C1/C(=C/c2ccncc2)SC(=S)N1Nc1ccccc1,IC50,Large T antigen,12.7 µM (active)
CC(C)N1CCc2c(sc(NC(=O)c3ccc(S(=O)(=O)N4CCOCC4)cc3)c2C#N)C1,EC50,[1],5.69 µM (active)
O=Cc1sc(=O)n(Cc2cccc(C(=O)O)c2)c1Cl,IC50,Large T antigen,18.6 µM (active)
same,AC50,[4],16.5 µM (active)
same,EC50,Protein RecA,9.42 µM (active)
CC1=NNC(=O)C1C(c1ccccc1)C(C#N)C#N (stereo not drawn),AC50,[4],5.23 µM (active)
same,EC50,Protein RecA,3.84 µM (active)
O=C1COC(c2ccccc2O)=NN1CCCN1CCCC1,AC50,Cytochrome P450 2D6,3.16 µM (inconclusive)
CCCc1[nH][nH]c(=O)c1C(c1cccc(Cl)c1)C(C#N)C#N (stereo not drawn),AC50,[4],> 380 µM (inactive)
same,EC50,Protein RecA,0.755 µM (active)
CCN1C(=O)C2(C(C(=O)c3cc4ccccc4o3)=C(O)C(=O)N2CCCN(C)C)c2ccccc21 (stereo not drawn),IC50,Large T antigen,52.4 µM (active)
Cc1cc(C(=O)CN2C(=O)c3ccccc3C2=O)c(C)n1C1CC1,AC50,[4],> 380 µM (inactive)
same,EC50,Protein RecA,> 380 µM (inactive)
COc1cc(/C=C2/C(=O)N(c3ccccc3)N=C2C)ccc1OS(=O)(=O)c1ccccc1,AC50,[4],1.94 µM (active)
same,EC50,Protein RecA,1.5 µM (active)
NS(=O)(=O)c1ccc(/N=C/c2c(O)oc3ccccc3c2=O)cc1,AC50,[4],> 380 µM (inactive)
same,EC50,Protein RecA,> 380 µM (inactive)
CCCN1CCC[C@@H]2Cc3nc(N)ncc3C[C@H]21 [QUINELORANE],AC50,Cytochrome P450 2D6,25.1 µM (inconclusive)
CCOC(=O)N/N=C\c1ccc(OC(=O)c2ccco2)cc1,AC50,[4],17 µM (active)
same,EC50,Protein RecA,14.5 µM (active)
Cc1ccccc1-c1cncnc1Nc1ccc(F)cc1,AC50,Cytochrome P450 2D6,39.8 µM (inconclusive)
CCOc1ccc(C(c2c(C)n[nH]c2O)c2c(C)n[nH]c2O)cc1OCC,AC50,[4],0.412 µM (active)
same,EC50,Protein RecA,0.183 µM (active)
COc1ccccc1/N=C/C=C1OC(C)(C)C(C)(C)O1,EC50,[2],3.65 µM (active)
same,EC50,[3],> 60 µM (not active)
Cn1c(=O)c2c(nc(S)n2Cc2ccc(Cl)cc2)n(C)c1=O,IC50,Large T antigen,16.2 µM (active)
Nc1ccc(O)c2ccccc12,AC50,[4],16 µM (active)
same,EC50,Protein RecA,10.1 µM (active)
COC(=O)[C@@]1(Cc2ccccc2)[C@H]2c3cc(C(=O)N(C)C)n(Cc4ccsc4Br)c3C[C@H]2CN1C(=O)c1ccccc1,AC50,Cytochrome P450 2D6,31.6 µM (inconclusive)
Cc1ccc(S(=O)(=O)CCC(=O)c2cccc([N+](=O)[O-])c2)cc1,EC50,[2],2.47 µM (active)
same,EC50,[3],> 60 µM (not active)
CC(C)(C)c1[nH]nc2c1C(c1ccoc1)C(C#N)=C(N)O2 (stereo not drawn),AC50,[4],20.4 µM (active)
same,EC50,Protein RecA,3.58 µM (active)
CCN1C(=O)C(=CC=CN(C)c2ccccc2)SC1=S,EC50,[1],6.59 µM (active)
Cc1n[nH]c(Nc2ccc(O)cc2)c1[N+](=O)[O-],IC50,Large T antigen,7.06 µM (active)
COc1cc(/C=N/NC(=O)C(=O)NCc2ccco2)ccc1O,IC50,Large T antigen,12.9 µM (active)
CCN(C(=O)CSc1ncccc1C(=O)Oc1cccc([N+](=O)[O-])c1)c1cccc(C)c1,AC50,[4],3.43 µM (active)
same,EC50,Protein RecA,> 380 µM (inconclusive)
Cc1ccc(-[n+]2cc(=O)o[nH]2)cc1,AC50,Cytochrome P450 2D6,1.58 µM (inconclusive)
CC(C)c1ccc(C2C3=C(CC(C)(C)CC3=O)N=C3C2=C(O)c2ccccc23)cc1 (stereo not drawn),EC50,[2],1.68 µM (active)
same,EC50,[3],> 60 µM (not active)
O=C(Oc1ccc(Br)cc1C(=S)N1CCCCC1)c1cc([N+](=O)[O-])cc([N+](=O)[O-])c1,AC50,[4],23.9 µM (active)
same,EC50,Protein RecA,1.71 µM (active)
COc1ccc(N2CCC(CN=C(S)Nc3c(C)cccc3C)C2)cc1 (stereo not drawn),IC50,Large T antigen,14.6 µM (active)
same,EC50,[2],2.76 µM (active)
same,EC50,[3],> 60 µM (not active)
CN1CCN(/N=C/c2ccc(-c3ccc([N+](=O)[O-])cc3Cl)o2)CC1,EC50,[2],0.474 µM (active)
same,EC50,[3],> 60 µM (inconclusive)
CCC(=O)Oc1ccc(C(=O)Nc2cccc(C(=O)c3ccccc3)c2)cc1,AC50,[4],13.2 µM (active)
same,EC50,Protein RecA,13.8 µM (active)
C/C=C/C(=O)Nc1cccc(C2=NOC3(C2)C[C@@H](C(N)=O)N(C(=O)c2cc([N+](=O)[O-])cc([N+](=O)[O-])c2C)C3)c1 (stereo partly drawn),EC50,[1],> 53 µM (inactive)
COc1cc(CNc2ccc(N3CCOCC3)cc2)ccc1OCC(=O)NC(C)(C)C,IC50,Large T antigen,4.16 µM (active)
COc1ccccc1CNc1ncncc1-c1cccnc1,AC50,Cytochrome P450 2D6,20 µM (inconclusive)
